38 molecules from patent US11358936B2, “Lysyl oxidase-like 2 inhibitors and uses thereof” (PharmAkea, Inc., priority 2015, dated 2022) can be followed below.

For the experiment, the target named is human LOXL2 (Homo sapiens (Human), UniProt Q9Y4K0). The experiment can be described thus: Human LOXL2 Amine Oxidase Activity Assay (Amplex Red fluorescence). In kind it is biochemical. As to conditions: concentrated conditioned media from CHO cells stably expressing human LOXL2; 2 h at 37° C. preincubation; DAP substrate; read-out: IC50. As for the experimental part:
LOXL2 amine oxidase activity is evaluated by measuring Amplex Red fluorescence using 10-20× concentrated conditioned media from CHO cells stably expressing human LOXL2. To assay for amine oxidase activity, 10 μL of the concentrated conditioned media is incubated with 2 μL of test compound in DMSO and 73 μL Assay Buffer (50 mM Borate Buffer, pH8) for 2 h at 37° C. After the 2 h incubation, 5 μl of 10 mM 1,5-Diaminopentane (DAP) diluted in Assay Buffer and 10 μl of Amplex Red Mix (8.5 μl Assay Buffer+0.5 μl of 10 mM Amplex Red+1 μl of 500 U/ml Horseradish Peroxidase) are added and the plate mixed and immediately placed on the FlexStaion for fluorescence measurements. Fluorescence is read in kinetic mode every 2 min for 1 hour at excitation=544 and emission=590. The amine oxidase activity is calculated from the slope of the linear portion of the curve.

pIC50: −log10 of the molar value. Counter-ions that a name gives are not always drawn.

Sequence of human LOXL2 (Q9Y4K0 26-774): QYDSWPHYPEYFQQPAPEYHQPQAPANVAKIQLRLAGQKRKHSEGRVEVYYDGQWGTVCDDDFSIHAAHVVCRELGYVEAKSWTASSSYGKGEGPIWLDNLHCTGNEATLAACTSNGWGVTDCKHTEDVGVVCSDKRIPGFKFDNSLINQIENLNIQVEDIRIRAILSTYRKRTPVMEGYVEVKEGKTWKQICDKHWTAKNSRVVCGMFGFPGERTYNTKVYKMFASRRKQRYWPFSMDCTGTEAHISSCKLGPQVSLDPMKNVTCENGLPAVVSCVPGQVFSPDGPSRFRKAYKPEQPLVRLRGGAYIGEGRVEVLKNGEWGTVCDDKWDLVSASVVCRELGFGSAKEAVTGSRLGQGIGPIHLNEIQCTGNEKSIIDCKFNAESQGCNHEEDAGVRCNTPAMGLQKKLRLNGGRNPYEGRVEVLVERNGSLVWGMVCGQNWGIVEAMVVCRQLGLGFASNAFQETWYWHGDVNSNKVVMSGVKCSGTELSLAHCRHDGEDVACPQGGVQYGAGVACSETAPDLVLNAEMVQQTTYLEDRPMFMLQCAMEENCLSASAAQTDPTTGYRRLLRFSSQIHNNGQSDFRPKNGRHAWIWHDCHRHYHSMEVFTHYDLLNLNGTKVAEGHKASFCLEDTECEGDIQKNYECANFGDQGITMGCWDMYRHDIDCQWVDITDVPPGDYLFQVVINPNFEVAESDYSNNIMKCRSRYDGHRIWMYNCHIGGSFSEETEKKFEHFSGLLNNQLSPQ

One may read the pIC50 as −log10 of the IC50, conventionally taken in molar units. For the molecule `COC(=O)c1ccc(CNC(=O)c2cccc(Oc3cc(CN)ccn3)c2)cc1` [Compound 1-33, Methyl 4-((3-((4-(aminomethyl)pyridin-2-yl)oxy)benzamido)methyl)benzoate hydrochloride], the negative logarithm of the IC50 (pIC50) was greater than 6.52.
Turning to `NCc1ccnc(Oc2cccc(C(=O)NCc3ccc(C(=O)O)cc3)c2)c1` [Compound 1-34, 4-((3-((4-Aminomethyl)pyridin-2-yl)oxy)benzamido)methyl)benzoic acid hydrochloride], the negative-log IC50 (pIC50) is greater than 6.52.
Under `NCc1ccnc(Oc2cccc(C(=O)NCc3cccc(C(=O)O)c3)c2)c1` [Compound 1-35, 3-((3-((4-Aminomethyl)pyridin-2-yl)oxy)benzamido)methyl)benzoic acid hydrochloride] stands greater than 6.52; under `NCc1ccnc(Oc2cccc(C(=O)N[C@@H](CO)c3ccccc3)c2)c1` [Compound 1-36, (R)-3-((4-Aminomethyl)pyridin-2-yl)oxy)-N-(2-hydroxy-1-phenylethyl)benzamide hydrochloride], greater than 6.52.
Under `NCc1ccnc(Oc2cccc(C(=O)NCc3ccc(-n4ccnc4)c(F)c3)c2)c1` [Compound 1-37, 3-((4-(Aminomethyl)pyridin-2-yl)oxy)-N-(3-fluoro-4-(1H-imidazol-1-yl)benzyl)benzamide dihydrochloride] stands greater than 6.52.
Then `N=C(N)c1cccc(CNC(=O)c2cccc(Oc3cc(CN)ccn3)c2)c1` [Compound 1-39, 3-((4-(Aminomethyl)pyridin-2-yl)oxy)-N-(3-carbamimidoylbenzyl)benzamide dihydrochloride], with greater than 6.52; and `NCc1ccnc(Oc2cccc(C(=O)NCCc3ccccc3)c2)c1` [Compound 1-40, 3-((4-(Aminomethyl)pyridin-2-yl)oxy)-N-phenethylbenzamide hydrochloride], with greater than 6.52; and `NCc1ccnc(Oc2cccc(C(=O)N3CCc4ccccc4C3)c2)c1` [Compound 1-41, (3-((4-(Aminomethyl)pyridin-2-yl)oxy)phenyl)(3,4-dihydroisoquinolin-2(1H)-yl)methanone trifluoroacetate], with greater than 6.52.
As for `NCc1ccnc(Oc2cccc(C(=O)NCc3cc4ccccc4s3)c2)c1` [Compound 1-42, 3-((4-(Aminomethyl)pyridin-2-yl)oxy)-N-(benzo[b]thiophen-2-ylmethyl)benzamide hydrochloride], the pIC50 is greater than 6.52.
For `NCc1ccnc(Oc2cccc(C(=O)NCc3cnccn3)c2)c1` [Compound 1-43, 3-((4-(Aminomethyl)pyridin-2-yl)oxy)-N-(pyrazin-2-ylmethyl)benzamide hydrochloride], the pIC50 was greater than 6.52.
Take `CCCCCCCCCCCCCNC(=O)c1cccc(Oc2cc(CN)ccn2)c1` [Compound 1-44, 3-((4-(Aminomethyl)pyridin-2-yl)oxy)-N-tridecylbenzamide hydrochloride]: the negative logarithm of the IC50 (pIC50) was greater than 6.52.
On to `NCc1ccnc(OCc2cccc(C(=O)Nc3ccccc3)c2)c1` [Compound 1-45, 3-(((4-(Aminomethyl)pyridin-2-yl)oxy)methyl)-N-phenylbenzamide hydrochloride], for which the pIC50 is greater than 6.52.
Under `NCc1ccnc(-c2cccnc2)c1` [Compound 2-3, [2,3′-Bipyridin]-4-ylmethanamine] stands greater than 6.52; under `NCc1ccnc(-c2ccc(F)cc2)c1` [Compound 2-4, (2-(4-Fluorophenyl)pyridin-4-yl)methanamine], greater than 6.52; under `NCc1ccnc(-c2cccc(C(=O)O)c2)c1` [Compound 2-5, hydrochloride], 6.00 to 6.52.
Under `NCc1ccnc(-c2ccc(C(=O)O)cc2)c1` [Compound 2-6, 4-(4-Aminomethyl)pyridin-2-yl)benzoic acid trifluoroacetate] stands 6.00 to 6.52; under `NCc1ccnc(Oc2cccc(Oc3ccccc3)c2)c1` [Compound 2-8, (2-(3-Phenoxyphenoxy)pyridin-4-yl)methanamine], greater than 6.52.
Then `NCc1ccnc(Oc2ccc(C(=O)O)cc2)c1` [Compound 2-9, 4-((4-(Aminomethyl)pyridin-2-yl)oxy)benzoic acid hydrochloride], with 6.00 to 6.52; and `NCc1ccnc(Oc2cccc3c2ccn3Cc2ccccc2)c1` [Compound 2-10, (2-((1-Benzyl-1H-indol-4-yl)oxy)pyridin-4-yl)methanamine hydrochloride], with greater than 6.52; and `Cc1cc2c(Oc3cc(CN)ccn3)cccc2n1Cc1ccc(F)cc1F` [Compound 2-11, (2-((1-(2,4-Difluorobenzyl)-2-methyl-1H-indol-4-yl)oxy)pyridin-4-yl)methanamine trifluoroacetate], with greater than 6.52.
In the case of `Cc1cn(Cc2ccc(F)cc2F)c2cccc(Oc3cc(CN)ccn3)c12` [Compound 2-12, (2-((1-(2,4-Difluorobenzyl)-3-methyl-1H-indol-4-yl)oxy)pyridin-4-yl)methanamine trifluoroacetate], the pIC50 was greater than 6.52.
As for `COc1ccc(Cn2c(C)cc3c(Oc4cc(CN)ccn4)cccc32)cn1` [Compound 2-13, (2-((1-((6-Methoxypyridin-3-yl)methyl)-2-methyl-1H-indol-4-yl)oxy)pyridin-4-yl)methanamine trifluoroacetate], the pIC50 is greater than 6.52.
Under `COc1ccc(Cn2cc(C)c3c(Oc4cc(CN)ccn4)cccc32)cn1` [Compound 2-14, (2-((1-((6-Methoxypyridin-3-yl)methyl)-3-methyl-1H-indol-4-yl)oxy)pyridin-4-yl)methanamine trifluoroacetate] stands greater than 6.52.
Turning to `NCc1ccnc(Oc2cccc3c2ccn3Cc2ccc(F)cn2)c1` [Compound 2-15, (2-((1-((5-Fluoropyridin-2-yl)methyl)-1H-indol-4-yl)oxy)pyridin-4-yl) methanamine hydrochloride], the pIC50 is greater than 6.52.
Then `NCc1ccnc(Oc2cccc3c2ccn3Cc2ccc3ccccc3n2)c1` [Compound 2-16, (2-((1-(Quinolin-2-ylmethyl)-1H-indol-4-yl)oxy)pyridin-4-yl)methanamine hydrochloride], with greater than 6.52; and `NCc1ccnc(Oc2cccc3c2ccn3Cc2cnc(C(F)(F)F)s2)c1` [Compound 2-17, (2-((1-((2-(Trifluoromethyl)thiazol-5-yl)methyl)-1H-indol-4-yl)oxy)pyridin-4-ylmethanamine hydrochloride], with greater than 6.52.
Take `NCc1ccnc(Oc2cccc3c2ccn3-c2ccc(F)cc2)c1` [Compound 2-18, (2-((1-(4-Fluorophenyl)-1H-indol-4-yl)oxy)pyridin-4-yl)methanamine hydrochloride]: the negative-log IC50 (pIC50) was greater than 6.52.
Regarding `Cn1cc(-n2ccc3c(Oc4cc(CN)ccn4)cccc32)cn1` [Compound 2-19, (2-((1-(1-Methyl-1H-pyrazol-4-yl)-1H-indol-4-yl)oxy)pyridin-4-yl)methanamine hydrochloride], the negative-log IC50 (pIC50) is greater than 6.52.
Then `COc1ccc(-n2ccc3c(Oc4cc(CN)ccn4)cccc32)cn1` [Compound 2-20, (2-((1-(6-Methoxypyridin-3-yl)-1H-indol-4-yl)oxy)pyridin-4-yl)methanamine hydrochloride], with greater than 6.52.
Under `NCc1ccnc(Oc2cccc3c2ccn3-c2nc3ccc(F)cc3s2)c1` [Compound 2-21, (2-((1-(6-Fluorobenzo[d]thiazol-2-yl)-1H-indol-4-yl)oxy)pyridin-4-yl)methanamine hydrochloride] stands greater than 6.52.
Then `NCc1ccnc(Oc2cccc3c2ccn3CCc2ccc(F)cc2)c1` [Compound 2-22, (2-((1-(4-Fluorophenethyl)-1H-indol-4-yl)oxy)pyridin-4-yl)methanamine hydrochloride], with greater than 6.52; and `NCc1ccnc(Oc2cccc3c2c(Br)cn3CCc2ccc(F)cc2)c1` [Compound 2-23, (2-((3-Bromo-1-(4-fluorophenethyl)-1H-indol-4-yl)oxy)pyridin-4-yl)methanamine hydrochloride], with greater than 6.52; and `NCc1ccnc(Oc2cccc3c2ccn3C(=O)c2ccccc2)c1` [Compound 2-24, (4-((4-(Aminomethyl)pyridin-2-yl)oxy)-1H-indol-1-yl)(phenyl)methanone hydrochloride], with greater than 6.52.
For the molecule `NCc1ccnc(Oc2cccc3c2ccn3C(=O)Nc2ccccc2)c1` [Compound 2-25, 4-((4-(Aminomethyl)pyridin-2-yl)oxy)-N-phenyl-1H-indole-1-carboxamide hydrochloride], the pIC50 was greater than 6.52.
Then `CN(C)C(=O)Cn1ccc2c(Oc3cc(CN)ccn3)cccc21` [Compound 2-26, 2-(4-((4-(Aminomethyl)pyridin-2-yl)oxy)-1H-indol-1-yl)-N,N-dimethylacetamide hydrochloride], with greater than 6.52.
Then `NCc1ccnc(Oc2cccc3c2ccn3CC(=O)N2CCCCC2)c1` [Compound 2-27, 2-(4-((4-(Aminomethyl)pyridin-2-yl)oxy)-1H-indol-1-yl)-1-(piperidin-1-yl)ethanone hydrochloride], with greater than 6.52; and `CN(C(=O)Cn1ccc2c(Oc3cc(CN)ccn3)cccc21)c1ccccc1` [Compound 2-30, 2-(4-((4-(Aminomethyl)pyridin-2-yl)oxy)-1H-indol-1-yl)-N-methyl-N-phenylacetamide hydrochloride], with greater than 6.52.
Under `NCc1ccnc(Oc2cccc3c2ccn3CC(=O)N2CCCc3ccccc32)c1` [Compound 2-31, 2-(4-((4-(Aminomethyl)pyridin-2-yl)oxy)-1H-indol-1-yl)-1-(3,4-dihydroquinolin-1(2H)-yl)ethanone hydrochloride] stands greater than 6.52.
